# Biological target: Jack bean urease (Canavalia ensiformis, UniProt P07374)
# Assay: In vitro urease inhibition assay
# Type: biochemical
# Method: The measurement of urease inhibitory activity was carried out according to the literature method. The assay mixture containing 75 μL of Jack bean urease and 75 μL of tested compounds with various concentrations (dissolved in DMSO) was pre-incubated for 15 min on a 96-well assay plate. Acetohydroxamic acid was used as a reference. Then 75 μL of phosphate buffer at pH 6.8 containing phenol red (0.18 mmol·L^−1) and urea (400 mmol·L^−1) were added and incubated at room temperature. The reaction time required for enough ammonium carbonate to form to raise the pH phosphate buffer from 6.8 to 7.7 was measured by a microplate reader (560 nm), with the end-point being determined by the color change of the phenol-red indicator.
# Sequence of Jack bean urease (P07374 whole entry, looked up): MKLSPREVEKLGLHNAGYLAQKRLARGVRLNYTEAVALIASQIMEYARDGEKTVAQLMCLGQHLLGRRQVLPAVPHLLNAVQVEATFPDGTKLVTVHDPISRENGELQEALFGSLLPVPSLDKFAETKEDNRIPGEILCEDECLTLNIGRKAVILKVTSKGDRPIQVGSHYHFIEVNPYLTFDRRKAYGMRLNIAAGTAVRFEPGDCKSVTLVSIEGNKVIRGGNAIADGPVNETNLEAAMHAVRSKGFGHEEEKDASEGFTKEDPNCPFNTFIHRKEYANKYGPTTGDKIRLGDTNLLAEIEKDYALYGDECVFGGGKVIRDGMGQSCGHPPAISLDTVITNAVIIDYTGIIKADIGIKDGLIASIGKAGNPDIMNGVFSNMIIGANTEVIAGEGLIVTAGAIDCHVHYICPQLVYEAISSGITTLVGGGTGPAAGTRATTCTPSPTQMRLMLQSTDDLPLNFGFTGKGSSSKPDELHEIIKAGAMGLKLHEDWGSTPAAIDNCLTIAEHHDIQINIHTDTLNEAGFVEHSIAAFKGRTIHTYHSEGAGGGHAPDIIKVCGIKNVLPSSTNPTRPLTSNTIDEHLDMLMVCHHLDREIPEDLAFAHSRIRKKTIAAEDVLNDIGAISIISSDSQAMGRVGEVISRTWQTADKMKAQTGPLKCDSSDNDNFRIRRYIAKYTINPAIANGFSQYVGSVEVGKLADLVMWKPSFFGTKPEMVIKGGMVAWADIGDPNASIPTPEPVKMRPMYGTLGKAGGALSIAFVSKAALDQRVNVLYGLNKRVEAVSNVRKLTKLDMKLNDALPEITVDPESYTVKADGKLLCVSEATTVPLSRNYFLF
row,Structure (SMILES),IC50 [µM]
1,"COc1cc(C=NNC(=O)c2ccc(C(C)(C)C)cc2)ccc1F [Compound 4, 4-(Tert-butyl)-N′-(4-fluoro-3-methoxybenzylidene)benzohydrazide]",88.8 ± 7.71
2,"COc1cccc(/C=N/NC(=O)c2ccc(C(C)(C)C)cc2)c1O [Compound 5, 4-(t-But)-N′-(2-Hydroxy-3-methoxybenzylidene)benzohydrazide]",56.6 ± 3.18
3,"CC(C)(C)c1ccc(C(=O)NN=Cc2c3ccccc3cc3ccccc23)cc1 [Compound 6, N′-(Anthracen-9-ylmethylene)-4-(tert-butyl)benzohydrazide]",13.3 ± 0.58
4,"COc1ccc(Br)cc1C=NNC(=O)c1ccc(C(C)(C)C)cc1 [Compound 7, N′-(5-Bromo-2-methoxybenzylidene)-4-(t-But)benzohydrazide]",64.5 ± 3.97
5,"CC(C)(C)c1ccc(C(=O)NN=Cc2ccc(O)c(O)c2)cc1 [Compound 8, N′-(3,4-Dihydroxybenzylidene)-4-tert-butylbenzohydrazide]",80 ± 7.43
6,"COc1ccc(C=NNC(=O)c2ccc(C(C)(C)C)cc2)c(OC)c1OC [Compound 9, N′-(2,3,4-Trimethoxybenzylidene)-4-tert-butylbenzohydrazide]",63.5 ± 3.97
7,"CC(C)(C)c1ccc(C(=O)NN=Cc2cc([N+](=O)[O-])ccc2Cl)cc1 [Compound 10, 4-(Tert-butyl)-N′-(2-chloro-5-nitrobenzylidene)benzohydrazide]",63.5 ± 3.97
8,"CCOc1ccc(C=NNC(=O)c2ccc(C(C)(C)C)cc2)c(OC)c1 [Compound 11, 4-(Tert-butyl)-N′-(4-ethoxy-2-methoxybenzylidene)benzohydrazide]",63.5 ± 2.97
9,"CC(C)(C)c1ccc(C(=O)NN=Cc2cccc(O)c2)cc1 [Compound 12, 4-(Tert-butyl)-N′-(3-hydroxybenzylidene)benzohydrazide]",39.6 ± 11.5
10,"COc1cc(C=NNC(=O)c2ccc(C(C)(C)C)cc2)cc(OC)c1OC [Compound 13, 4-(Tert-butyl)-N′-(3,4,5-trimethoxybenzylidene)benzohydrazide]",80.9 ± 7.43
11,"CN(C)c1ccc(C=NNC(=O)c2ccc(C(C)(C)C)cc2)cc1 [Compound 14, 4-(Tert-butyl)-N′-(4-(dimethylamino)benzylidene)benzohydrazide]",81.2 ± 7.4
12,"CC(C)(C)c1ccc(C(=O)NN=Cc2ccc(Cl)cc2Cl)cc1 [Compound 15, 4-(Tert-butyl)-N′-(2,4-dichlorobenzylidene)benzohydrazide]",82.2 ± 7.43
13,"CC(C)(C)c1ccc(C(=O)NN=Cc2cc(C(C)(C)C)c(O)c(C(C)(C)C)c2)cc1 [Compound 16, 4-(Tert-butyl)-N′-(3,5-di-tert-butyl-4-hydroxybenzylidene)benzohydrazide]",79 ± 7.53
14,"CC(C)(C)c1ccc(C(=O)NN=Cc2cc(Cl)cc(Cl)c2O)cc1 [Compound 17, N′-(3,5-Dichloro-2-hydroxybenzylidene)-4-tert-butylbenzohydrazide]",27.5 ± 1.65
15,"CC(C)(C)c1ccc(C(=O)NN=Cc2ccc([N+](=O)[O-])cc2)cc1 [Compound 18, N′-(4-Nitrobenzylidene)-4-tert-butylbenzohydrazide]",66.1 ± 1.79
16,"COc1cccc(OC)c1C=NNC(=O)c1ccc(C(C)(C)C)cc1 [Compound 19, 4-(Tert-butyl)-N′-(2,6-dimethoxybenzylidene)benzohydrazide]",67.5 ± 4.16
17,"CC(C)(C)c1ccc(C(=O)N/N=C/c2ccc(O)cc2)cc1 [Compound 20, 4-(t-But)-N′-(4-Hydroxybenzylidene)benzohydrazide]",51.4 ± 11.5
18,"COc1cc(OC)c(C=NNC(=O)c2ccc(C(C)(C)C)cc2)c(OC)c1 [Compound 21, N′-(2,4,6-Trimethoxybenzylidene)-4-tert-butylbenzohydrazide]",71.3 ± 2.47
19,CC(C)(C)c1ccc(C(=O)N/N=C/c2ccc(Cl)c(O)c2Cl)cc1 [Compound 22],38.6 ± 11.5
20,COc1cc(C=NNC(=O)c2ccc(C(C)(C)C)cc2)ccc1O [Compound 23],252 ± 6.82
21,"CC(C)(C)c1ccc(C(=O)N/N=C/c2ccccc2O)cc1 [Compound 24, 4-(t-But)-N′-(2-Hydroxybenzylidene)benzohydrazide]",37.5 ± 12.5
22,"COc1ccc(/C=N/NC(=O)c2ccc(C(C)(C)C)cc2)cc1OC [Compound 25, 4-(t-But)-N′-(3,4-Dimethoxybenzylidene)benzohydrazide]",13.4 ± 0.33
23,"CC(C)(C)c1ccc(C(=O)N/N=C/c2cc(C(C)(C)C)cc(C(C)(C)C)c2O)cc1 [Compound 26, 4-(t-But)-N′-(3,5-Di-tert-butyl-2-hydroxybenzylidene)benzohydrazide]",49.5 ± 12.7
